Assay results taken from patent publication US20030018071A1, “Method and compositions for treating fibrotic diseases” (priority 2002, published 2003).
≈ marks a conversion by molar mass, not a printed value.

Columns and labels:
[1] = tested on: human fetal lung fibroblasts; assay: Fibroblast chemotaxis toward fibronectin (Boyden blindwell chamber); type: cell-based
Description: Since the activity of a PDE4 inhibitor should be dependent on endogenous cyclic AMP levels, a study was designed to determine if endogenous prostaglandin production rendered cells susceptible to the effects of Ariflo. To accomplish this, human fetal lung fibroblasts were cultured and, after achieving confluence, were incubated for 60 minutes with and without indomethacin (2×10^−6 M) to inhibit cyclooxygenase. Fibroblasts were then trypsinized and placed in the upper portion of a Boyden blindwell chemotaxis chamber. Fibronectin, 20 μg/ml, was placed in the lower portion of the chamber as the chemoattractant. Indomethacin (2×10^−6 M) was added to the upper side of the chemotaxis chamber. […] In three separate experiments, the concentration of Ariflo required to inhibit chemotaxis by 50% was 4.9±2.5 μg/ml. In the presence of indomethacin, Ariflo inhibited chemotaxis only at the highest concentration tested 10 μg/ml reducing the response to 58.7±21.0% of control (p<005) compared to indomethacin. […] Since cyclooxygenase activity and prostaglandin production can be modulated by a variety of mediators present in an inflammatory milieu, fibroblasts in such a setting may be particularly sensitive to the inhibitory effects of Ariflo. Such an effect has therapeutic value in fibrotic disorders.

[2] = developed as an antidepressant; cited from earlier work

## COc1ccc2c(c1)c(CC(=O)O)c(C)n2C(=O)c1ccc(Cl)cc1 [Indomethacin, indomethacin, reference compound]
[1]; indomethacin alone 2×10^−6 M, fibronectin 20 μg/ml
  chemotaxis, % compared to control: 159±33%

## COc1ccc([C@]2(C#N)CC[C@@H](C(=O)O)CC2)cc1OC1CCCC1 [Ariflo, cis 4-cyano-4-(3-cyclopentyloxy-4-methoxyphenyl)cyclohexan-1-carboxylic acid]
[1]; Homo sapiens, Fibroblast, Ariflo 10 μg/ml in the presence of indomethacin 2×10^−6 M, compared to indomethacin, read-out: chemotaxis response, % of control
  activity at 10 µg/mL: 58.7 ± 21%
[1]; Homo sapiens, Fibroblast, control fibroblasts (no indomethacin), fibronectin 20 μg/ml as chemoattractant, three separate experiments, read-out: concentration required to inhibit chemotaxis by 50%
  IC50: 4.9 ± 2.5 µg/mL (≈ 14.3 µM)
[1]; added to control fibroblasts
  effect on chemotaxis (in words): inhibited chemotaxis in a concentration dependent manner

## COc1ccc(C2CNC(=O)C2)cc1OC1CCCC1 (centres unmarked) [rolipram]
[2]
  side effects in clinical studies: has psychotropic activity and produces gastrointestinal effects, e.g., pyrosis, nausea and emesis
